Measured values published in US12508280B2, “Formulations for improving gut health” (DSM IP ASSETS B.V., priority 2018, dated 2025).

Columns and labels:
cecal microbiota = test: Broiler feeding trial, cecal microbiota 16S rRNA sequencing; assay type: in vivo, chickens
Excerpt: Each group was sampled three times (i.e., S1=14 days, S2=28 days, S3=38/42 days) in specific days corresponding to when the feed will be changed along the feeding program.
During each sampling (i.e., S1, S2 and S3) a total of 40 birds/group were humanely euthanized and 9 litter samples will be collected (i.e., 3 samples/group).
DNA extraction from cecal samples: The commercial kit DNeasy PowerSoil kit (Qiagen, Hilden, Germany) has been chosen and applied to all available cecal samples following the manufacturer instructions. DNA yield was measured using a Nanodrop instrument.
16S rRNA gene PCR amplification and sequencing. The V3-V4 hypervariable region of the 16S rRNA gene was PCR-amplified using 341F and 785R primers with Illumina overhang adaptors sequences. Amplicons purification was performed by using AMPure XP Beads magnetic beads (Beckman Coulter, Brea, CA). For the indexed library preparation, the Nextera XT DNA Library Prep Kit (Illumina, San Diego, CA) was used. A further magnetic beads purification step was performed and libraries quantified using the Qubit 3.0 fluorimeter (Invitrogen), then pooled at 4 nM. The library pool was denatured with NaOH 0.2 N and diluted to […]. Sequencing was performed on Illumina MiSeq platform using a 2×250 bp paired end protocol, according to the manufacturer's instructions (Illumina).
Bioinformatics and statistics. Raw sequences were processed using a pipeline combining PANDAseq (Masella et al, 2012) and QIIME2 (Caporaso et al, 201 O; qiime2.org). After chimera sequences removal, high-quality reads were filtered and binned into high-resolution operational taxonomic units (OTUs) according to the taxonomic threshold of 99% through an open-reference strategy performed with dada2 (Callahan et al, 2016). Taxonomy was assigned using the vsearch classifier (Rognes et al, 2016) and SILVA database as reference (Quast et al, 2013). Alpha diversity was measured using Faith PD index and number of observed OTUs. Statistics was performed using R Studio software version 1.0.136 running on R software 3.1.3 (r-project.org/), implemented with the libraries vegan, made4, PMCMR. Beta diversity was estimated by computing weighted UniFrac distances and visualized by Principal Coordinates Analyses (PCoAs). The significance of separation among groups of samples was tested by permutational multivariate analysis of variance using the function adonis of the vegan package. Bacterial phylogenetic groups (genus, family, phylum) showing a minimum relative abundance of 0.5% in at least the 1% of the samples were kept for further analysis and graphical visualization. Compositional differences among group of samples were tested using Kruskal-Wallis test. P values were corrected for multiple comparisons using the Benjamini-Hochberg method.

[1] = test system: fecal suspension from the selected donor; test: Gas production in closed colon incubations (first set); assay type: cell-based, human; conditions: after 48 h fermentation, vs corresponding control
Protocol: The colon incubations were performed in closed incubation systems. This allowed us to evaluate the accumulation of gasses in the headspace, which can be measured with a pressure meter. Gas production is a measure of microbial activity, and thus of the speed of fermentation of the potentially prebiotic substrates. It can be used as an indication for bloating and digestive wellbeing upon prebiotic consumption.
Since ethanol is known to have antimicrobial effects, two blanks for each type of stock solution were included. As a source of the microbial community, a freshly prepared fecal suspension from the selected donor was added to the reactors. […] All tests, except the blanks, were performed in single repetition, resulting in 40 independent incubations, as specified in Table 1. Incubation conditions of the pre-screening experiment and the final experiment were 48 h at 37° C., under shaking (90 rpm) and anaerobic conditions. DNA were extracted from effluent samples collected from each fermentation flask before (0 h fermentation) and after fermentation (24 h fermentation) and use for microbiome composition analysis by Shotgun sequencing. Effluent samples were collected from each fermentation flask before (0 h fermentation) and after fermentation (48 h fermentation), sterilized by filtering through 0.22 μm filters and used for short chain fatty acids (SCFA), quantification of immunological biomarkers and in vitro analysis in cell culture systems.
For both sets of in vitro experiments, colon incubations were performed in closed incubation systems as described above. This allowed to evaluate the accumulation of gasses in the headspace, which can be measured with a pressure meter. Gas production is a measure of microbial activity, and thus of the speed of fermentation of the potentially prebiotic substrates

Compound	abundance of family Bacteroidaceae and genus Bacteroides in cecum (cecal microbiota; Group B (50 mg/kg riboflavin), all available time points)	cecal microbiota structure (beta diversity, UniFrac PCoA) (cecal microbiota; Group B (control diet+50 mg/kg riboflavin) vs groups A and C)	abundance of Bifidobacteriaceae in cecum (cecal microbiota; Group C (100 mg/kg riboflavin), from T1 to T3, significant at T2 and T3)	cecal species richness (observed OTUs) (cecal microbiota; Group C (control diet+100 mg/kg riboflavin), time points T2 and T3, P<0.0001)	[Eubacterium] coprostanoligenes group abundance in cecum (cecal microbiota; Groups B and C vs control group A, T2)	gas production ([1]; 1× dose)	gas production ([1]; 5× dose)
Cc1cc2nc3c(=O)[nH]c(=O)nc-3n(C[C@H](O)[C@H](O)[C@H](O)CO)c2cc1C [Vitamin B2, riboflavin]	significantly higher abundances	different longitudinal trajectory	progressive increase	significant increase in species richness	higher abundance	–	–
Vitamin E	–	–	–	–	–	reduced gas production	reduced gas production
